ChEMBL document CHEMBL1157209, “QSAR study on a novel series of 8-azaadenine analogues proposed as A1 adenosine receptor antagonists” (Eur J Med Chem, 2008)

Target: T1, Adenosine receptor A1 (Bos taurus, UniProt P28190)
T1 sequence (P28190 whole entry): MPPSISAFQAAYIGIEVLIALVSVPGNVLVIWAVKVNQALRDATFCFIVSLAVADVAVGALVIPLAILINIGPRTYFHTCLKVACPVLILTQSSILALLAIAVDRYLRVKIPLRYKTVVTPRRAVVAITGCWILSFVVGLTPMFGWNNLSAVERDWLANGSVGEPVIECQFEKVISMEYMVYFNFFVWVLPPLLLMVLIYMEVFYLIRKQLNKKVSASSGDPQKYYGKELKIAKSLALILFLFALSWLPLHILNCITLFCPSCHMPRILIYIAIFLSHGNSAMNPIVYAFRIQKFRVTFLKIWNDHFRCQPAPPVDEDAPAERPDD
Test: Binding affinity to bovine adenosine A1 receptor

Ki [nM]	Structure (SMILES)
1.6	c1ccc(Cn2nnc3c(NC4CCCCC4)nc(-c4ccccc4)nc32)cc1
20	COc1ccc(C(=O)Nc2nc(-c3ccccc3)nc3c2nnn3Cc2ccccc2Cl)cc1
1.85	OC1CCC(Nc2nc(-c3ccccc3)nc3c2nnn3Cc2ccccc2F)CC1 (stereo not drawn)
3.1	OC1CCC(Nc2nc(-c3ccccc3)nc3c2nnn3Cc2ccccc2Cl)CC1 (stereo not drawn)
3.24	COc1ccc(C(=O)Nc2nc(-c3ccccc3)nc3c2nnn3Cc2ccccc2)cc1
10.3	O[C@H]1CCCC[C@@H]1Nc1nc(-c2ccccc2)nc2c1nnn2Cc1ccccc1
2.7	OC1CCC(Nc2nc(-c3ccccc3)nc3c2nnn3Cc2ccccc2)CC1 (stereo not drawn)
21.9	COc1ccc(C(=O)Nc2nc(-c3ccccc3)nc3c2nnn3Cc2ccccc2F)cc1
